These results are taken from PubChem BioAssay (NCI).

Some test systems named below: DMS 114 small cell lung; XF 498 CNS; DLD-1 colon; KM20L2 colon; M19-MEL melanoma; P388/ADR leukemia; SN12K1 renal; P388 leukemia; LXFL 529 NSCLC; RXF-631 renal.
Common to all, as to test: NCI tumour cell line growth inhibition, 48 h

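Results reflect a 48-hour exposure of cells in 96-well plates to compound at five concentrations. TGI is the concentration that stops growth completely.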

In the case of `C=CC[C@@]1(C#N)C[C@H](C[C@]2(C#N)C[C@H](CCl)OC(C)(C)O2)OC(C)(C)O1`, the TGI in the test with DMS 114 small cell lung, in the test with XF 498 CNS, in the test with DLD-1 colon, with KM20L2 colon and in the test on M19-MEL melanoma was over 100 µM each time.

`CC1=NN(C(=O)c2ccccc2)C(=O)C1N=Nc1ccccc1C(=O)O` (configuration not stated): the TGI in the test with DMS 114 small cell lung is over 100 µM; in the test with P388/ADR leukemia, over 44.7 µM; in the test with XF 498 CNS, 69.9 µM; in the test with SN12K1 renal it was over 100 µM; with DLD-1 colon, over 100 µM; in the test on KM20L2 colon it was over 100 µM. In addition, the TGI in the test with P388 leukemia was over 46.3 µM; with M19-MEL melanoma, over 100 µM.

Consider `CCOC(=O)CC(=Nc1cc(C)on1)N(CC)CC`, for which the TGI with DMS 114 small cell lung, with XF 498 CNS, in the test with LXFL 529 NSCLC, in the test on DLD-1 colon, in the test on KM20L2 colon and in the test with M19-MEL melanoma was over 100 µM in each case.

In the case of `COc1ccc2c(c1)Cc1c-2[nH]c2cc3c(cc2c1=O)OCO3`, the TGI in the test on DMS 114 small cell lung was 17.9 µM; in the test on XF 498 CNS it was 38.3 µM; with LXFL 529 NSCLC it was over 100 µM; in the test with DLD-1 colon, 41.7 µM; in the test with KM20L2 colon, 35 µM; in the test on M19-MEL melanoma it was 34.3 µM.

For the compound `COC(=O)C[C@](O)(CCC(C)(C)O)C(=O)O[C@@H]1C(OC)=C[C@]23CCCN2CCc2cc4c(cc2[C@H]13)OCO4`, the TGI is 0.0597 µM in the test with DMS 114 small cell lung; over 100 µM in the test on P388/ADR leukemia; 0.359 µM with SN12K1 renal; 0.74 µM in the test with KM20L2 colon; 0.133 µM in the test on P388 leukemia; 0.363 µM in the test with M19-MEL melanoma.

Consider `CN(C)C(=S)/N=c1\ssc(=S)n1Cc1ccccn1`, for which the TGI with RXF-631 renal was over 100 µM; with XF 498 CNS, 34.3 µM; in the test on LXFL 529 NSCLC it was over 100 µM; in the test with DLD-1 colon, over 100 µM; in the test on M19-MEL melanoma, over 100 µM.

For the compound `CCOC(=O)C1CCn2c(nc3c(=O)n(C)c(=O)n(C)c32)S1` (configuration not stated), the TGI in the test with RXF-631 renal, in the test on LXFL 529 NSCLC, with DLD-1 colon and with KM20L2 colon was over 100 µM in each case.

On to `Cc1ccc(C(=O)NC(C)C)cc1N=NN(C)C`, for which the TGI with LXFL 529 NSCLC, in the test with DLD-1 colon, in the test with KM20L2 colon and in the test on M19-MEL melanoma was over 100 µM in each case.

Consider `Cc1cc(C)c(N)c(C)c1N`, for which the TGI with DMS 114 small cell lung, in the test on LXFL 529 NSCLC, with DLD-1 colon, in the test with KM20L2 colon and in the test on M19-MEL melanoma was over 100 µM each time.

Consider `O=C(Cc1ccccc1)NN1C(=O)C(Cl)C1c1ccccc1` (configuration not stated), for which the TGI is over 100 µM with DMS 114 small cell lung; 45.2 µM in the test with XF 498 CNS; 50.5 µM in the test with LXFL 529 NSCLC; over 100 µM with DLD-1 colon; over 100 µM in the test with KM20L2 colon; over 100 µM with M19-MEL melanoma.

As to `Oc1cccc2nc3cc(CN4CCOCC4)c(CN4CCOCC4)cc3nc12`, the TGI was over 100 µM in the test on RXF-631 renal; over 100 µM in the test on XF 498 CNS; over 100 µM in the test on LXFL 529 NSCLC; over 100 µM in the test with DLD-1 colon; over 100 µM with KM20L2 colon; 66.5 µM with M19-MEL melanoma.

Regarding `CC[S+](C)c1ccc(-c2c3nc(c(-c4ccc([S+](C)CC)cc4)c4ccc([nH]4)c(-c4ccc([S+](C)CC)cc4)c4nc(c(-c5ccc([S+](C)CC)cc5)c5ccc2[nH]5)C=C4)C=C3)cc1` (configuration not stated), the TGI is 8.31 µM with XF 498 CNS, over 100 µM in the test with LXFL 529 NSCLC, over 100 µM with KM20L2 colon and over 100 µM in the test on M19-MEL melanoma.

On to `CCc1c(-c2coc(CC/C(C)=C/c3ccccc3)n2)oc(OC)c(C)c1=O`, for which the TGI with DMS 114 small cell lung is 29.2 µM; in the test on XF 498 CNS it was 75.4 µM; in the test on LXFL 529 NSCLC, over 55.5 µM; in the test with DLD-1 colon, over 65.6 µM; with KM20L2 colon it was over 54.6 µM; in the test with M19-MEL melanoma, over 100 µM.

For `CCOC(=O)CCc1c(C)c2c(O)cc(O)cc2oc1=O`, the TGI with P388/ADR leukemia, in the test with XF 498 CNS, in the test on SN12K1 renal, with DLD-1 colon, with KM20L2 colon and in the test with P388 leukemia was over 100 µM each time. In the test with M19-MEL melanoma, this compound yielded a TGI of over 100 µM.

Turning to `[N-]=[N+]=NC(c1cn(C2CC(O)C(CO)O2)c(=O)[nH]c1=O)C(I)I` (configuration not stated), the TGI in the test on DMS 114 small cell lung, in the test on LXFL 529 NSCLC, in the test on DLD-1 colon, in the test with KM20L2 colon and in the test on M19-MEL melanoma was over 100 µM in each case.

Take `Nc1nc(SCc2ccccc2[N+](=O)[O-])c2[nH]cnc2n1`: the TGI with LXFL 529 NSCLC, in the test on DLD-1 colon, in the test on KM20L2 colon and with M19-MEL melanoma was over 100 µM each time.
